Experimental data as given in US5994311A, “Cell adhesion peptides for modifying the adhesion capacity of eukaryotic cells between each other” (Beiersdorf AG, priority 1994, dated 1999).

Legend:
AKR-2B cells [1] = assay: Cell adherence test, dilution series on AKR-2B cells (EC50); format: cell-based, mouse; conditions: for EC50 (semi-maximum cell adherence): peptide/BSA conjugates diluted in PBS, read off from curve
Procedure: (§1) 50 μl each of the peptide/BSA conjugates or the peptides were placed, in different concentrations, in the wells of a 96-well flat-bottomed microtiter plate (DYNATECH). After drying for 2 hours at 37° C., unbound peptide/BSA conjugate or peptide is removed by washing with phosphate-buffered saline solution (PBS) several times. In order to prevent the non-specific adhesion of the cells to polystyrene, all the wells were subsequently saturated for 30 min. at 37° C. with heat-denatured BSA (2 mg/ml). Following that, it was once again washed with PBS.
(§2) The cell adherence test was performed with AKR-2B mouse fibroblasts (Shipley et al., Cancer Res. 44 (1984) 710-716) and human dermal fibroblasts (HDF, removed from the lower arm, 18th passage). AKR-2B cells were cultivated in McCoy's medium (10% calf serum), and HDF cells in Dulbecco's modified eagle medium (DMEM) in the presence of 10% foetal calf serum (FCS) and 1% streptomycin/penicillin. For the adherence test, the cells were washed twice with protein-free HYBRI-MAX™ (medium for culture of hybridoma cell types containing 1 mM Mn^2+ and 0.02% heat-denatured BSA) medium (SIGMA) and then taken up in Hybri-Max (1 mM Mn^2+, 0.02% heat-denatured BSA). In this way, it was largely ensured that neither protein components from the culture medium, nor serum components, such as fibronectin for example, could influence the adherence test. In each well of the microtiter plate previously filled with test substance (peptide concentration per well: approx. 35 nmol), 200 μl of the cell suspension taken up in HYBRI-MAX™ (medium for culture of hybridoma cell types containing 1 mM Mn^2+ and 0.02% heat-denatured BSA) (1 mM Mn^2+, 0.02% heat-denatured BSA) (1.5×10^5 cells/well) were pipetted and incubated for 1 hour in an incubator at 37° C., 5% CO2 atmosphere. After that, the supernatant was decanted off, and non-adhered cells were removed by washing with PBS. The adhered cells were fixed for 0.5 min with methanol and stained with the MERCK HEMACOLOR™ (colution for fast staining in microscopy) reagent kit in order to quantify the number of cells.
For some selected conjugates, dilution series were included in order to determine binding constants for AKR-2B cells. For this purpose, the peptide/BSA conjugates were diluted in PBS, and 50 μl each of these dilutions were placed in the wells of a microtiter plate. Incubation and all the other steps were performed according to the method described above. After the readings had been plotted graphically, the difference between the figure for the maximum cell adherence and the zero value could be formed, and the EC50 values shown in Tab. 3 as a measure of the semi-maximum cell adherence could be read off from the line of the curve.
In order to establish binding constants for the peptides of the invention, dose effectiveness curves on AKR-2B cells were recorded for some selected conjugates. The EC50 values shown in Tab. 3 as a measure of semi-maximum cell adherence were read off from the curve concerned (plotted: cell adherence versus peptide concentration). Low EC50 values mean that only small quantities of the substances need to be used in order to achieve a semi-maximum effect, in other words that the substance is very effective.

HDF cells [2] = assay: Cell adherence test with HDF cells; format: cell-based, human; conditions: for adherence promoting effect for HDF cells (in words): BSA conjugates; for CELL ADHESION [%]: peptide/BSA conjugates bound to polystyrene, approx. 35 nmol peptide per well, 1 hour at 37° C., fibronectin positive control, BSA negative control
Procedure: as §1
As a positive control for the adhesion capacity, bovine fibronectin (Paesel & Lorey, 1 mg/ml) was used, and heat-denatured BSA (2 mg/ml) as a negative control; this is not capable of influencing intercellular adhesion.
as §2

AKR-2B cells [3] = assay: Competitive inhibition test (adherence of AKR-2B cells to BSA/AP#2 conjugate); format: cell-based, mouse; conditions: for Inhibition (maximum measured reduction in cell adherence): soluble peptide 1 μmol/well, AKR-2B cells, plates coated with BSA/AP#2 conjugate 10 nmol/well; for inhibitory effect on the attachment of AKR-2B cells (in words): soluble peptides, competition with BSA/AP#2 conjugate
Procedure: Via the specific saturation of surface receptors (shown schematically in FIG. 3E), it is possible, in the case of soluble peptides, to measure an inhibitory effect on the adhesion of test cells (AKR-2B). In the experiment described here, a selected peptide/BSA conjugate corresponding to a peptide concentration of 10 nmol/well was placed in the microtiter plates and incubated for 2 hours at 37° C. Unsaturated binding sites in the culture vessel were subsequently saturated for 30 minutes with heat-denatured BSA (2 mg/ml). The peptides were dissolved in HYBRI-MAX™ (medium for culture of hybridoma cell types containing 1 mM Mn^2+ and 0.02% heat-denatured BSA) Medium (0.02 % BSA, 1 mM Mn^2+), and the pH was adjusted to a level of 7.2 to 7.4. Following that, the peptide solutions were treated with Reductacryl®. […] From these stock solutions, dilution series were prepared in HYBRI-MAX™ (medium for culture of hybridoma cell types containing 1 mM Mn^2+ and 0.02% heat-denatured BSA) medium (1 mM Mn^2+, 0.02% heat-denatured BSA), and added to the AKR-2B cells taken up in the same medium. After that, the specimens were incubated for 10 minutes at 37° C., while being gently shaken. The cells pre-treated in this way (1.5×10^5 /200 μl) were subsequently transferred to the conjugate-coated microtiter plates. The further treatment of the test plates was performed by analogy with 4.1.
The inhibitory effect of the peptides is shown in Tab. 4 as the difference between the 100% figure (control, with no peptide in the medium), and the maximum measured reduction in cell adherence at a peptide concentration of 1 μmol/well. A figure of 100% would mean complete inhibition, i.e. the maximum effect.
For the peptides of the invention available in soluble form, i.e. in a form not bound to carrier molecules, it is possible to detect adhesion inhibiting properties which come about as a result of the specific blockade of epitopes on surface receptors of the test cells (cf. FIG. 3E).
The AP#2 peptide was selected as an internal standard. Compared to most of the other peptides of the invention (cf. Tab. 2), the adhesion promoting properties of BSA/AP#2 conjugates lie within a region of semi-maximum effectiveness. Experience has shown that, in order to detect inhibitory effects, it is favourable to measure in a range of less than optimum effect, since otherwise weak inhibitory effects might not be detected.

HDF cells [4] = assay: Chemotaxis test using HDF cells (modified Boyden chambers); format: cell-based, human; conditions: 4 hours at 37° C., medium control deducted, Collagen 0.3 nmol/ml, Fibronectin 0.6 nmol/ml, peptides 1 μmol/ml
Procedure: In addition to wound contraction, the epithelialisation of the wound as a result of the migration of cells from the edges of wounds plays a significant role in wound repair. Some selected peptides were investigated in chemotaxis tests in order to study their ability to simulate the migration of HDF cells. The test was conducted in accordance with Scharffetter-Kochanek et al. (J. Invest. Dermatol. 98 (1992) 3-11) in modified Boyden chambers. In the lower cavity of the Boyden chamber, 210 μl DMEM (control) or the potential chemoattractant taken up in the same volume of DMEM were placed. […] 2×10^5 cells were pipetted into the upper Boyden chamber (volume 810 μl). The incubation time was 4 hours at 37° C. The results for the peptides investigated are summed up in Tab. 5, with the figures for the medium control already having been deducted from these readings.

Substance	adherence promoting effect for HDF cells (in words) (HDF cells [2])	CELL ADHESION [%] (HDF cells [2])	other results
S-V-T-L-G-(C) [SVTLG, reference compound]	slightly less effective	72.1	EC50 (semi-maximum cell adherence) (AKR-2B cells [1]): 64.5 pmol/well
L-D-G-(C) [AP#27]	significant adhesion promoting effect	23.3	–
T-V-L-R-N-I-Q-E-L-L-D-G-E-(C) [AP#12]	–	74.2	EC50 (semi-maximum cell adherence) (AKR-2B cells [1]): 29.0 pmol/well
G-I-V-R-T-P-L-A-E-L (GIVRTPLAEL) [AP#8]	good effectiveness	78.2	EC50 (semi-maximum cell adherence) (AKR-2B cells [1]): 41.7 pmol/well
L-A-E-L-L-L-G-(C) (LAELLLG; C-terminal Cys) [AP#23]	somewhat reduced adherence efficacy	26.4	–
FN: bovine fibronectin (Paesel & Lorey, 1 mg/ml), positive control for the adhesion capacity	–	100.0	–
R-T-P-L-A-E-L-L-D-G-(C) [AP#15]	–	28.5	–
V-T-G-R-G-D-S-P-A-(C) [IVA1, reference compound]	similarly good to those of fibronectin	93.9	Inhibition (maximum measured reduction in cell adherence) (AKR-2B cells [3]): 2.6%; inhibitory effect on the attachment of AKR-2B cells (in words) (AKR-2B cells [3]): virtually no effect; EC50 (semi-maximum cell adherence) (AKR-2B cells [1]): 0.73 pmol/well
L-A-E-L-L-D-G-E-(C) [AP#20]	increased adherence promoting effect	54.1	–
G-G-G-S-G-G-G-S-S-G-S-G-(C) (GGGSGGGSSGSG; C-terminal Cys) [AP#10]	significant adhesion modifying effect	27.5	–
L-A-E-L-L-D-G-E-G-Q-(C) [AP#18]	only have a basal adhesion promoting effect	11.9	–
L-L-D-G-(C) [AP#26]	–	31.3	–
L-A-E-L-L-D-G-(C) (LAELLDG; C-terminal Cys) [AP#21]	–	43.5	–
G-T-P-G-P-Q-G-I-A-G-Q-R-G-V-V-(C) (GTPGPQGIAGQRGVV; C-terminal Cys) [P-15, adhesion promoting fragment of the α-1(I) chain of collagen, reference compound]	slightly less effective	62.1	–
G-R-G-D-S-(C) [IVA1b, reference compound]	similarly good to those of fibronectin	93.8	–
G-I-V-R-T-P-L (GIVRTPL) [AP#9]	good effectiveness	93.0	EC50 (semi-maximum cell adherence) (AKR-2B cells [1]): 50.7 pmol/well
E-L-L-D-G-(C) [AP#25]	–	47.7	Inhibition (maximum measured reduction in cell adherence) (AKR-2B cells [3]): 18.1%; inhibitory effect on the attachment of AKR-2B cells (in words) (AKR-2B cells [3]): slightly less efficiency; EC50 / binding constant on AKR-2B cells (in words) (AKR-2B cells [1]; peptide/BSA conjugates): better binding constant was obtained compared to the control; EC50 (semi-maximum cell adherence) (AKR-2B cells [1]): 42.0 pmol/well
L-A-E-L-L-D-G-E-G-(C) [AP#19]	increased adherence promoting effect	51.9	–
L-A-E-L-L-E-G-(C) (LAELLEG; C-terminal Cys) [AP#22]	somewhat reduced adherence efficacy	18.8	–
Fibronectin	–	–	Avge. no. of cells per field of vision (HDF cells [4]): 43.9; Chemotactic migration [%] (HDF cells [4]): 96.0%
I-V-R-T-P--- -A-E-L-L-D-G-(C) (AELLDG; N-terminal IVRTP; C-terminal Cys) [AP#14]	–	27.0	–
Q-I-D-F-N-R-L-F-T-H-P-V-T-D-L-F-D-P-(C) [AP#1]	Particularly good effectiveness	72.5	EC50 (semi-maximum cell adherence) (AKR-2B cells [1]): 32.9 pmol/well
I-V-R-T-P-L-A-E-L-L-D-G-(C) [AP#13]	–	37.3	–
Collagen: collagen I, positive control in chemotaxis test	–	–	Avge. no. of cells per field of vision (HDF cells [4]): 45.7; Chemotactic migration [%] (HDF cells [4]): 100.0%
G-G-G-A-G-G-G-S-S-G-S-G-(C) (GGGAGGGSSGSG; C-terminal Cys) [AP#11]	significant adhesion modifying effect	30.5	–
A-E-L-L-D-G-(C) (AELLDG; C-terminal Cys) [AP#24]	–	32.7	–
R-T-P--- -A-E-L-L-D-G-(C) [AP#16]	–	21.4	–
G-V-V-S-T-P-L-V-N-L-I-N-G-(C) [AP#5]	–	53.2	–
